# Results reported in the supplement of paper PMC11208160.
# Test: recombinant barcode read abundance after kanamycin selection (control-corrected) (log10(CPM+1)); higher = more efficient recombination; sequences stand for … in AGTGCAGAGAAAATCGGCCAGTTTTCTCTGCCTGCAGTCCGCATGCCGT…AGATTTATGCAGCGGACTGCCTTTCTCCCAAAGTGATAAACCGGACAGTATCATGGACCGGTTTTCCCGGTAATCCGTATTTGCAAGGTTGGTTTCACT; site = the 11-nt target
# In short: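 Pooled oligos, each joining a target to an IS621 bridge RNA target-binding loop, were cloned and co-electroporated with a donor plasmid into E. coli. Selective plates carried chloramphenicol/ampicillin/kanamycin and 0.1 mM IPTG, while chloramphenicol/ampicillin LB agar served as control, with two replicates of each. Recombination efficiency rests on averaged, control-corrected counts per million of barcodes at recombinant junctions, shown as log10(CPM+1).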
# 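Note: IS621 recombinase and bridge RNA in Escherichia coli cells.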
row,Sequence,recombinant barcode read abundance (log10)
1,TGTAGTCCTTGGGTTCTAACCTGTTGCAT (site TGTAGTCCTAG),0.156
2,TGTAGTCCTTGGGTTCTAACCTGTTGCAT (site TGTAGTCCTAT),0.097
3,TGTAGTCCTTGGGTTCTAACCTGTTGCCT (site TGTAGTCCTAA),0.0423
4,TGTAGTCCTTGGGTTCTAACCTGTTGCCT (site TGTAGTCCTAC),0.0647
5,TGTAGTCCTTGGGTTCTAACCTGTTGCCT (site TGTAGTCCTAG),0.26
6,TGTAGTCCTTGGGTTCTAACCTGTTGCCT (site TGTAGTCCTAT),0.348
7,TGTATCGCTTGGGTTCTAACCTGTTGCCT (site TGTATCGCTAG),0.405
8,TGTATCGCTTGGGTTCTAACCTGTTGCCT (site TGTCCCGCTAG),0.149
9,TGTCAAACTTGGGTTCTAACCTGTTGCCT (site TGTCAAACTAG),0.298
10,TGTCAAACTTGGGTTCTAACCTGTTGCCT (site TGTCAACCTAG),0.176
11,TGTCAAACTTGGGTTCTAACCTGTTGCCT (site TGTCAAGCTAG),0.145
12,TGTCAAACTTGGGTTCTAACCTGTTGCCT (site TGTCAATCTAG),0.0654
13,TGTCAATCTTGGGTTCTAACCTGTTGCCT (site TGTCAAACTAG),0.243
14,TGTCAATCTTGGGTTCTAACCTGTTGCCT (site TGTCAACCTAG),0.061
15,TGTCAATCTTGGGTTCTAACCTGTTGCCT (site TGTCAAGCTAG),0.0211
16,TGTCAATCTTGGGTTCTAACCTGTTGCCT (site TGTCAATCTAG),0.0947
17,TGTCAATCTTGGGTTCTAACCTGTTGCGT (site TGTCAATCTAC),0.543
18,TGTCAATCTTGGGTTCTAACCTGTTGCGT (site TGTCGATCTAG),0.152
19,TGTCAGGCTTGGGTTCTAACCTGTTGCCT (site TGCTAGGCTAG),0.187
20,TGTCAGGCTTGGGTTCTAACCTGTTGCCT (site TGTCAGGCTAG),0.0749
21,TGTCGCACTTGGGTTCTAACCTGTTGCAG (site TGTAGCACTGT),0.123
22,TGTCGCACTTGGGTTCTAACCTGTTGCAG (site TGTCGCACTCT),0.313

row,Sequence,recombinant barcode read abundance (log10)
1,TGTCTACCTTGGGTTCTAACCTGTTGCCT (site TGTCTACCTAG),0.191
2,TGTCTACCTTGGGTTCTAACCTGTTGCCT (site TGTCTATCTAG),0.653
3,TGTCTAGCTTGGGTTCTAACCTGTTGCCT (site TGACTAGCTAG),0.486
4,TGTCTAGCTTGGGTTCTAACCTGTTGCCT (site TGCCTAGCTAG),0.0303
5,TGTCTAGCTTGGGTTCTAACCTGTTGCCT (site TGGCTAGCTAG),0.0711
6,TGTCTAGCTTGGGTTCTAACCTGTTGCCT (site TGTCTAGCTAG),0.038
7,TGTCTCCCTTGGGTTCTAACCTGTTGCCG (site TGTCTCCCTCG),0.261
8,TGTCTCCCTTGGGTTCTAACCTGTTGCCG (site TGTGTCCCTCG),0.108
9,TGTCTGCCTTGGGTTCTAACCTGTTGCCT (site AGTCTGCCTAG),0.104
10,TGTCTGCCTTGGGTTCTAACCTGTTGCCT (site CGTCTGCCTAG),0.122
11,TGTCTGCCTTGGGTTCTAACCTGTTGCCT (site GGTCTGCCTAG),0.0534
12,TGTCTGCCTTGGGTTCTAACCTGTTGCCT (site TGTCTGCCTAG),0.295
13,TGTGAGTCTTGGGTTCTAACCTGTTGCAT (site TGTGAGTCTAA),0.107
14,TGTGAGTCTTGGGTTCTAACCTGTTGCAT (site TGTGAGTCTAC),0.856
15,TGTGAGTCTTGGGTTCTAACCTGTTGCAT (site TGTGAGTCTAG),0.149
16,TGTGAGTCTTGGGTTCTAACCTGTTGCAT (site TGTGAGTCTAT),1.7
17,TGTGATCCTTGGGTTCTAACCTGTTGCAT (site TGAGATTCTAT),0.0352
18,TGTGATCCTTGGGTTCTAACCTGTTGCAT (site TGTGATCCTAT),1.4
19,TGTGCAACTTGGGTTCTAACCTGTTGCTG (site ATGCTTGCTTG),0.353
20,TGTGCAACTTGGGTTCTAACCTGTTGCTG (site TGTGCAACTCA),0.284
21,TGTGGAGCTTGGGTTCTAACCTGTTGCCG (site TGTAGAGCTCG),0.448
